Several values for one entry are separate records, joined by “and”; a condition that tells them apart may be missing. Identical values can stand only once. ± gives the expanded uncertainty stated by the source.
Settings: Gas

O=C(C(F)(F)C(F)(F)F)C(F)(C(F)(F)F)C(F)(F)F [dodecafluoro-2-methylpentan-3-one]
thermal conductivity (473.94 K, 607 kPa, transient hot wire): 0.02517 ± 0.0015 W/m/K | thermal conductivity (473.94 K, 608 kPa, transient hot wire): 0.02532 ± 0.0016 W/m/K | thermal conductivity (473.94 K, 1476 kPa, transient hot wire): 0.02574 ± 0.00085 W/m/K | thermal conductivity (473.96 K, 1476 kPa, transient hot wire): 0.02582 ± 0.00085 W/m/K | thermal conductivity (473.98 K, 426 kPa, transient hot wire): 0.02562 ± 0.0016 W/m/K | thermal conductivity (473.99 K, 423 kPa, transient hot wire): 0.02558 ± 0.0016 W/m/K | thermal conductivity (474.04 K, 842 kPa, transient hot wire): 0.02513 ± 0.0015 W/m/K and 0.02512 ± 0.0015 W/m/K | thermal conductivity (474.09 K, 607 kPa, transient hot wire): 0.02539 ± 0.0016 W/m/K and 0.02526 ± 0.0015 W/m/K | thermal conductivity (474.16 K, 420 kPa, transient hot wire): 0.02565 ± 0.0016 W/m/K | thermal conductivity (474.16 K, 421 kPa, transient hot wire): 0.02567 ± 0.0016 W/m/K | thermal conductivity (474.19 K, 842 kPa, transient hot wire): 0.02519 ± 0.0015 W/m/K | thermal conductivity (474.2 K, 841 kPa, transient hot wire): 0.0252 ± 0.0015 W/m/K | thermal conductivity (474.27 K, 606 kPa, transient hot wire): 0.02536 ± 0.0016 W/m/K | thermal conductivity (474.28 K, 606 kPa, transient hot wire): 0.02535 ± 0.0016 W/m/K | thermal conductivity (474.31 K, 419 kPa, transient hot wire): 0.02566 ± 0.0016 W/m/K | thermal conductivity (474.32 K, 419 kPa, transient hot wire): 0.0257 ± 0.0016 W/m/K | thermal conductivity (499.37 K, 646 kPa, hot wire): 0.02778 ± 0.0013 W/m/K | thermal conductivity (499.37 K, 647 kPa, hot wire): 0.02768 ± 0.0013 W/m/K | thermal conductivity (499.4 K, 421 kPa, hot wire): 0.02708 ± 0.0013 W/m/K | thermal conductivity (499.41 K, 221 kPa, hot wire): 0.02654 ± 0.0013 W/m/K | thermal conductivity (499.41 K, 422 kPa, hot wire): 0.0269 ± 0.0013 W/m/K | thermal conductivity (499.42 K, 220 kPa, hot wire): 0.02629 ± 0.0012 W/m/K | thermal conductivity (499.45 K, 60 kPa, hot wire): 0.02624 ± 0.0012 W/m/K | thermal conductivity (499.45 K, 645 kPa, hot wire): 0.02749 ± 0.0013 W/m/K and 0.02782 ± 0.0013 W/m/K | thermal conductivity (499.47 K, 60 kPa, hot wire): 0.02576 ± 0.0012 W/m/K | thermal conductivity (499.49 K, 419 kPa, hot wire): 0.0267 ± 0.0013 W/m/K | thermal conductivity (499.5 K, 419 kPa, hot wire): 0.02667 ± 0.0013 W/m/K | thermal conductivity (499.5 K, 50295 kPa, transient hot wire): 0.06261 ± 0.0016 W/m/K | thermal conductivity (499.51 K, 219 kPa, hot wire): 0.02641 ± 0.0012 W/m/K | thermal conductivity (499.51 K, 220 kPa, hot wire): 0.02635 ± 0.0012 W/m/K | thermal conductivity (499.52 K, 4853 kPa, transient hot wire): 0.03589 ± 0.00085 W/m/K and 0.03595 ± 0.00086 W/m/K | thermal conductivity (499.52 K, 50304 kPa, transient hot wire): 0.06215 ± 0.0016 W/m/K | thermal conductivity (499.53 K, 644 kPa, hot wire): 0.02758 ± 0.0013 W/m/K | thermal conductivity (499.53 K, 2128 kPa, transient hot wire): 0.02828 ± 0.0017 W/m/K | thermal conductivity (499.54 K, 61 kPa, hot wire): 0.02593 ± 0.0012 W/m/K | thermal conductivity (499.55 K, 61 kPa, hot wire): 0.02598 ± 0.0012 W/m/K | thermal conductivity (499.55 K, 644 kPa, hot wire): 0.02734 ± 0.0013 W/m/K | thermal conductivity (499.56 K, 419 kPa, hot wire): 0.02715 ± 0.0013 W/m/K | thermal conductivity (499.56 K, 50302 kPa, transient hot wire): 0.06239 ± 0.0016 W/m/K | thermal conductivity (499.57 K, 419 kPa, hot wire): 0.02691 ± 0.0013 W/m/K | thermal conductivity (499.57 K, 4325 kPa, transient hot wire): 0.0351 ± 0.0022 W/m/K | thermal conductivity (499.57 K, 50305 kPa, transient hot wire): 0.06236 ± 0.0016 W/m/K | thermal conductivity (499.58 K, 3937 kPa, transient hot wire): 0.03408 ± 0.0021 W/m/K | thermal conductivity (499.58 K, 4853 kPa, transient hot wire): 0.03611 ± 0.00086 W/m/K | thermal conductivity (499.59 K, 50256 kPa, transient hot wire): 0.06271 ± 0.0016 W/m/K | thermal conductivity (499.59 K, 50258 kPa, transient hot wire): 0.06238 ± 0.0016 W/m/K | thermal conductivity (499.6 K, 218 kPa, hot wire): 0.02625 ± 0.0012 W/m/K | thermal conductivity (499.6 K, 219 kPa, hot wire): 0.0263 ± 0.0012 W/m/K | thermal conductivity (499.6 K, 3614 kPa, transient hot wire): 0.03311 ± 0.002 W/m/K | thermal conductivity (499.6 K, 4853 kPa, transient hot wire): 0.036 ± 0.00086 W/m/K | thermal conductivity (499.61 K, 35693 kPa, transient hot wire): 0.05695 ± 0.0014 W/m/K | thermal conductivity (499.61 K, 50280 kPa, transient hot wire): 0.06265 ± 0.0016 W/m/K | thermal conductivity (499.62 K, 61 kPa, hot wire): 0.02606 ± 0.0012 W/m/K and 0.02605 ± 0.0012 W/m/K | thermal conductivity (499.62 K, 5588 kPa, transient hot wire): 0.03699 ± 0.00088 W/m/K | thermal conductivity (499.62 K, 35669 kPa, transient hot wire): 0.057 ± 0.0014 W/m/K | thermal conductivity (499.62 K, 35696 kPa, transient hot wire): 0.05672 ± 0.0014 W/m/K | thermal conductivity (499.63 K, 643 kPa, hot wire): 0.02745 ± 0.0013 W/m/K | thermal conductivity (499.63 K, 3615 kPa, transient hot wire): 0.03333 ± 0.0021 W/m/K | thermal conductivity (499.63 K, 4324 kPa, transient hot wire): 0.03525 ± 0.0022 W/m/K | thermal conductivity (499.63 K, 5589 kPa, transient hot wire): 0.03717 ± 0.00088 W/m/K | thermal conductivity (499.63 K, 35672 kPa, transient hot wire): 0.05682 ± 0.0014 W/m/K | thermal conductivity (499.63 K, 50307 kPa, transient hot wire): 0.06251 ± 0.0016 W/m/K | thermal conductivity (499.64 K, 644 kPa, hot wire): 0.02725 ± 0.0013 W/m/K | thermal conductivity (499.64 K, 1595 kPa, transient hot wire): 0.0274 ± 0.0009 W/m/K | thermal conductivity (499.64 K, 3289 kPa, transient hot wire): 0.03215 ± 0.002 W/m/K | thermal conductivity (499.64 K, 4325 kPa, transient hot wire): 0.03518 ± 0.0022 W/m/K | thermal conductivity (499.64 K, 50259 kPa, transient hot wire): 0.06245 ± 0.0016 W/m/K | thermal conductivity (499.65 K, 419 kPa, hot wire): 0.02725 ± 0.0013 W/m/K | thermal conductivity (499.65 K, 1595 kPa, transient hot wire): 0.02712 ± 0.00089 W/m/K | thermal conductivity (499.65 K, 2128 kPa, transient hot wire): 0.02826 ± 0.0017 W/m/K and 0.0282 ± 0.0017 W/m/K | thermal conductivity (499.65 K, 4853 kPa, transient hot wire): 0.03633 ± 0.00086 W/m/K | thermal conductivity (499.65 K, 4854 kPa, transient hot wire): 0.03629 ± 0.00086 W/m/K | thermal conductivity (499.66 K, 418 kPa, hot wire): 0.02719 ± 0.0013 W/m/K | thermal conductivity (499.66 K, 3937 kPa, transient hot wire): 0.03435 ± 0.0021 W/m/K and 0.03413 ± 0.0021 W/m/K | thermal conductivity (499.67 K, 2953 kPa, transient hot wire): 0.0308 ± 0.0019 W/m/K | thermal conductivity (499.67 K, 35694 kPa, transient hot wire): 0.05685 ± 0.0014 W/m/K | thermal conductivity (499.68 K, 50260 kPa, transient hot wire): 0.06229 ± 0.0016 W/m/K | thermal conductivity (499.69 K, 218 kPa, hot wire): 0.02623 ± 0.0012 W/m/K and 0.0264 ± 0.0012 W/m/K | thermal conductivity (499.69 K, 5590 kPa, transient hot wire): 0.03719 ± 0.00089 W/m/K | thermal conductivity (499.69 K, 35675 kPa, transient hot wire): 0.05669 ± 0.0014 W/m/K | thermal conductivity (499.69 K, 35681 kPa, transient hot wire): 0.05715 ± 0.0014 W/m/K | thermal conductivity (499.69 K, 50252 kPa, transient hot wire): 0.06264 ± 0.0016 W/m/K | thermal conductivity (499.7 K, 60 kPa, hot wire): 0.02639 ± 0.0012 W/m/K and 0.0261 ± 0.0012 W/m/K | thermal conductivity (499.7 K, 2953 kPa, transient hot wire): 0.03112 ± 0.0019 W/m/K

— the NIST ThermoML archive (doi:10.1021/acs.jced.8b00132)
